Results taken from paper PMC11053681, “Gold(I) and Silver(I) Complexes Containing Hybrid Sulfonamide/Thiourea Ligands as Potential Leishmanicidal Agents” (Pharmaceutics, 2024).
“And” between values parts separate entries of the source, which are not always exact repeats. Equal values may be shown once. “Also recorded” adds a separate entry of the source. Read-outs that look alike come from different tables or passages of the source.

Assays:
[1] = target: LbOYE (Leishmania braziliensis, UniProt A4H6Z3); assay: Suppression of intrinsic tryptophan fluorescence of LbOYE; format: binding; settings: for Affinity of LbOYE for the compound (fluorescence quenching), in words: Hill fit for Kd not possible for these ligands
Description: The recombinant LbOYE protein was produced using the methodology previously described. Briefly, the protein was expressed in strains of bacterial Escherichia coli BL21(DE3) through induction by IPTG using the pET28a:LbOYE vector. The enzyme was purified through a chromatography step of capture by nickel affinity, as the pET28a vector allows the expression of a polyhistidine fusion peptide, located at the N-terminal end of the protein. After affinity purification, the polyhistidine tail was excised by “overnight” incubation with thrombin, and the second purification step was performed using size exclusion chromatography. Purification was evaluated by SDS-PAGE and protein concentration was estimated by spectrophotometry.
The emission spectra of the intrinsic fluorescence of the tryptophan were recorded using a Shimadzu F-4500 spectrofluorometer in the range of 310–420 nm, with opening of slits of excitation and emission at 5.0 nm and λex = 295 nm. Interaction analyzes between LbOYE and ligands were performed at λmax = 333 nm.
(§1) The compounds were solubilized in DMSO and then we made successive dilutions in a Tris-HCl 25 mmol L^−1 buffer, pH 8.0, containing 100 mmol L^−1 of NaCl. For all experiments, the final concentration of DMSO was kept constant and equal to 2.5%. Solutions with increasing concentrations of ligand and constant concentration of LbOYE (1 µmol L^−1) were prepared, which were kept at 25 °C for a period of 1h before acquisition of fluorescence emission spectra.
The results were obtained from the fluorescence emission spectra of the intrinsic tryptophan probe in the presence of the compounds HL1^Ch, HL3^FPh, HL5^NO2Ph, [Au(HL1^Ch)2]Cl and [Ag(HL3^FPh)2]NO3. The bonding parameters were determined by the Hill plot, obtaining the dissociation constant (Kd) through the non-linear adjustment of the saturation curve to the experimental data. The double-log plot was used to determine the bonding constant and the number of bonding sites (n). It also allows the calculation of the bonding constant (Kb) and Kd from 1/Kb.
Equation (1)—Hill’s equation:(1) F0−F/F0=[L]/L+Kd
Equation (2)—Double-log:(2) logF0−F/F0=nlogKb−nlog1/L−(F0−F)[P0]/F
Equation (3)—Equation of Stern–Volmer:(3) F0/F=1+KSV[L]
The study of fluorescence quenching can be affected when the ligand has absorption bands that coincide with excitation and emission wavelengths of fluorescence. This interference is called the internal filter effect, which can be minimized using the procedure described by Equation (4). Fobs and Fcor are the fluorescence intensities at 333 nm measured and corrected, respectively; l represents the optical step where the absorption and emission of light occurs and C0 is the concentration of the ligand.
For the correction of the internal filter effect, were used the molar absorptivity coefficient values in the excitation (295 nm) and emission (333 nm) lengths, [λ/ε (L mol^−1 cm^−1)]; HL1^Ch (εex = 373 and εem = 117), HL3^FPh (εex = 1191 and εem = 57), HL5^NO2Ph (εex = 6162 and εem = 9124), Au1 (εex = 7045 and εem = 4008) and Ag3 (εex = 9431 and εem = 3281).

[2] = system: Leishmania infantum; assay: Leishmanicidal activity against promastigotes (resazurin); format: cell-based; settings: for IC50: Leishmania infantum, promastigote form, 24 h treatment, resazurin, read-out: IC50 L. infantum; for SI L. infantum: selectivity index = CC50 (Vero) / IC50 (L. infantum promastigotes)
Procedure: (§2) The Leishmania infantum and Leishmania braziliensis strains were maintained in Schneider medium supplemented with 20% of SFB (Schneider 20%), cultivated in […] bottles and stored at 28 °C in a BOD oven. For the assays, parasites at the 5th day stationary growth phase were used.
(§3) The promastigotes metacyclic form of Leishmania infantum and Leishmania braziliensis were first filtered with an insulin syringe to break up rosettes and, then, were isolated from the culture in the stationary phase by centrifugation of 400× g for 4 min at a temperature of 4 °C [53]. The supernatant was subjected to a new centrifugation, heavier, of 2000× g for 30 min, also at 4 °C. The supernatant was discarded and the cell pallet formed from this centrifugation was resuspended in 10 mL of 10% Schneider medium. The process ensured the removal of cellular debris and dead parasites, as well as possible crystals from the culture medium, so that the quality of the experiment was guaranteed. Then, the promastigotes were diluted to 1:10 in paraformaldehyde (PFA) for counting in a Neubauer Chamber, with the concentrations adjusted for each experiment.
(§4) An amount of 1 × 10^7 parasites per well was used. The parasites were plated in 96-well plates. Then, the compounds were added in triplicate, starting at a concentration of 500 µM, with serial dilutions being performed up to a concentration of 3.9 µM [53]. The treatment was carried out for 24 h and, after adding 5 µL of resazurin, the fluorescence was read using a Enspire model spectrofluorometer (Perkin-Elmer, Waltham, MA, USA).

[3] = system: Leishmania braziliensis; assay: as above; format: cell-based; settings: for IC50: Leishmania braziliensis, promastigote form, 24 h treatment, resazurin, read-out: IC50 L. braziliensis; for SI L. braziliensis: selectivity index = CC50 (Vero) / IC50 (L. braziliensis promastigotes)
Procedure: as §2, §3, §4

[4] = system: RAW macrophages infected with Leishmania infantum; assay: Infectivity test / infection rate in RAW macrophages; format: cell-based; settings: three concentrations (below IC50, IC50, above IC50), 24 h treatment
Procedure: For the infection of RAW macrophages adhered to the plates, we used parasites in the promastigote form of Leishmania infantum, in the stationary phase, in a ratio of 10:1 (promastigotes/macrophages).
Macrophages were plated in the amount of 5 × 10^4 cells per well, in 96-well plates, which were kept in a CO2 oven at 37 °C for 24 h. The parasites were plated at a concentration of 10:1. The plates were kept in a CO2 oven for 12 h until the parasites infected the cells. […] Plates were fixed with paraformol for further evaluation. Plaques were evaluated by counting parasites within 200 cells under the EVOS Cell Imaging System (Thermo Scientific, Waltham, MA, USA) microscope by staining with propidium iodide.
In view of the data obtained, the six most promising compounds (HL1^Ch, HL2^Ph, Ag3, Ag4, Ag6 and Au2) were selected for carrying out the infection rate test against the L. infantum parasite. […] This test was performed at four stages. The first step determined the percentage of the amount in 200 infected macrophages per parasite, the second determined the percentage of parasites that infects 100 cells/macrophages, the third determined the average percentage of parasites that infects 200 cells/macrophages and, finally, the fourth step indicated the infection rate, that is, the result of the amount of Leishmania per macrophage (obtained from the third step) multiplied by the percentage of infected macrophages. Figure 5 presents the graphs of the infection rates, while the other graphs can be found in Figure S7.4.

[5] = Cytotoxicity assay on Vero cells (resazurin); format: cell-based, African green monkey; settings: African green monkey, Vero cells (ATCC CRL-1587), 24 h treatment
Procedure: For the experiment, Vero cells (ATCC CRL-1587) were used in Roswell Parl Memorial Institute (RPMI) medium with 10% fetal bovine serum (FBS) (RPMI 10%) and 20 μg/mL of Gentamicin. They were cultivated in culture bottles of […] and kept in an oven at 37 °C with 5% carbon dioxide (CO2). When picked or used on the day of the experiment, the cells were detached from the wall of the bottles with saline and 1X trypsin/EDTA. To find out how many cells there were in the bottle, it was diluted in Turkey liquid and then we proceeded with the counting in the Neubauer Chamber to calculate the desired concentrations. The Vero cells were plated at […] cells per well, in 96-well plates, and kept in an incubator with 5% CO2 at 37 °C for 24 h. Then, the compounds were added in triplicate, starting at a concentration of 500 µM, with serial dilution being performed up to a concentration of 3.9 µM [54]. The treatment was carried out for 24 h, and, after adding 5 µL of resazurin, the fluorescence was read using a spectrofluorometer (EnSpire Perkin-Elmer, Waltham, MA, USA).

[6] = Solubility in buffer for the fluorescence experiments; format: physicochemical; settings: Tris-HCl buffer
Procedure: as §1
After the synthesis and structural characterization of the compounds, studies of interaction of the compounds and the recombinant LbOYE were carried out by fluorescence measurements.

[7] = system: L. infantum; design: method as in PMID 21833767, PMID 22926569; settings: conditions and methods vary; read-out: Antileishmanial activity of other compounds; cited from earlier work

Sequence of LbOYE (A4H6Z3 entry or part of it): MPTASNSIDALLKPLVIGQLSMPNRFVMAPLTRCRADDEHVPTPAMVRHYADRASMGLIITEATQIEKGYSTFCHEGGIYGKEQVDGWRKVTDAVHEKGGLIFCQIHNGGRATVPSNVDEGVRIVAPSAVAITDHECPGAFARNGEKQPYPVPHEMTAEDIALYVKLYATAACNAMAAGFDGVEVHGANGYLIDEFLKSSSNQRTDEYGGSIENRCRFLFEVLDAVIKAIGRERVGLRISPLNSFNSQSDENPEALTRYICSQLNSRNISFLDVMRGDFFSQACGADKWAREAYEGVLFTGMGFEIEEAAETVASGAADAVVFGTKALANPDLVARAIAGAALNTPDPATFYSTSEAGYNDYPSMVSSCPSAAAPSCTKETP

With `Cc1ccc(S(=O)(=O)NNC(=S)NC2CCCCC2)cc1` [HL1^Ch] the “Affinity of LbOYE for the compound (fluorescence quenching), in words” value [1] was “lower affinity”, the IC50 [2] was 11 ± 0.306 µM and the “SI L. infantum” value [2] was 26.6 and 26.64. For the same molecule, the IC50 [3] was 128.9 ± 0.051 µM, the “SI L. braziliensis” value [3] was 2.27 and the “Infection rate of L. infantum in macrophages, in words” value [4] was “considerably lowered the infection rate of the parasite even at a concentration below its IC50”. The CC50 at 24 h [5] was 293 µM and the “Solubility in buffer at the concentrations for the fluorescence experiments, in words” value (shortened to “Solubility in buffer”) [6] was “passed this stage”.

For `Cc1ccc(S(=O)(=O)NNC(=S)Nc2ccccc2)cc1` [HL2^Ph], the IC50 [2] was 48.39 ± 0.189 µM, the “SI L. infantum” value [2] was 5.5 and 5.54 and the IC50 [3] was 273.5 ± 0.018 µM. For the same molecule, the “SI L. braziliensis” value [3] was 0.98, the “Infection rate of L. infantum in macrophages, in words” value [4] was “the infection index was not relevant for a concentration below its IC50” and the CC50 at 24 h [5] was 268 µM.

In the case of `Cc1ccc(S(=O)(=O)NNC(=S)Nc2ccc(F)cc2)cc1` [HL3^FPh, N-(4-fluorophenyl)-2-tosylhydrazinocarbothioamide], the “Affinity of LbOYE for the compound (fluorescence quenching), in words” value [1] is reported as “lower affinity; also recorded: low affinity”, the IC50 [2] is reported as 201.2 ± 0.052 µM and the “SI L. infantum” value [2] is reported as 1.450. For the same molecule, the IC50 [3] was 204.5 ± 0.018 µM, the “SI L. braziliensis” value [3] was 1.43 and the CC50 at 24 h [5] was 292 µM. The “Solubility in buffer” value [6] was “passed this stage”.

With `Cc1ccc(S(=O)(=O)NNC(=S)Nc2ccc(Cl)cc2)cc1` [HL4^ClPh, N-(4-chlorophenyl)-2-tosylhydrazinocarbothioamide] the IC50 [2] was 108.4 ± 0.104 µM, the “SI L. infantum” value [2] was 0.16 and the IC50 [3] was 133.8 ± 0.036 µM. The “SI L. braziliensis” value [3] was 0.13 and the CC50 at 24 h [5] was 16.8 µM.

For `Cc1ccc(S(=O)(=O)NNC(=S)Nc2ccc([N+](=O)[O-])cc2)cc1` [HL5^NO2Ph, N-(4-nitrophenyl)-2-tosylhydrazinocarbothioamide], the Kd ([1]; Hill plot (n = 1), Equation (1), 25 °C, Tris-HCl pH 8.0, 2.5% DMSO, read-out: Kd * (Hill plot)) was 35 ± 2 µM, the “Ksv *** (Stern–Volmer constant)” value ([1]; Stern–Volmer, Equation (3), 25 °C) was 6.5 ± 0.4 × 10^4 and the Kd ([1]; double log, Equation (2), Kd = 1/Kb, 25 °C, read-out: Kd ** (double log) (converted)) was 19 ± 1 µM. For the same molecule, the “n ** (number of bonding sites)” value ([1]; double log, Equation (2), 25 °C) was 1.5 ± 0.1, the IC50 [2] was 286.9 ± 0.075 µM and the “SI L. infantum” value [2] was 0.09. The IC50 [3] was 19.02 ± 0.012 µM, the “SI L. braziliensis” value [3] was 1.40 and the CC50 at 24 h [5] was 26.6 µM. For the same molecule, the “Solubility in buffer” value [6] was “passed this stage”.

For `C=CCNC(=S)NNS(=O)(=O)c1ccc(C)cc1` [HL6^Al, N-allyl-2-tosylhydrazinocarbothioamide], the IC50 [2] was 812.8 ± 0.515 µM, the “SI L. infantum” value [2] was 0.23 and the IC50 [3] was 313.5 ± 0.063 µM. The “SI L. braziliensis” value [3] was 0.60, the CC50 at 24 h [5] was 188 µM and the “Solubility in buffer” value [6] was “not soluble in the buffer used for the experiment”.

For `CCP(CC)CC.[Au+].[Cl-]` [[AuCl(PEt3)]], the IC50 [7] is given as 16.6 ± 1.03 µM.

In the case of `CC(=O)OC[C@H]1O[C@@H]([S-])[C@H](OC(C)=O)[C@@H](OC(C)=O)[C@@H]1OC(C)=O.CCP(CC)CC.[Au+]` [auranofin], the IC50 [7] is listed as 9.68 ± 1.02 µM.

For `CCCCCCCCCCCCCCCCOP(=O)([O-])OCC[N+](C)(C)C` [miltefosine], the IC50 [7] is given as 14.4 ± 1.1 µM.

In the case of `COc1cc(NC(C)CCCN)c2ncccc2c1` (stereo not shown) [primaquine], the IC50 [7] is given as 26.5 ± 1.2 µM.
